Source: US11826402B2, “Combination therapy involving antibodies against claudin 18.2 for treatment of metastatic pancreatic adenocarcinoma” (Astellas Pharma Inc., priority 2013, dated 2023)

Legend:
[1] = Phase I clinical study, single intravenous administration; assay type: in vivo, human
Description: IMAB362 is in early clinical testing. A phase I clinical study has been conducted in human. […] In an ongoing phase IIa clinical study IMAB362 is given repetitively.

Panc04.03 = test: IMAB362-mediated ADCC assay; assay type: cell-based, human; details: at least 2 donors
Suit2-LVT metastases = test: Suit2-LVT metastasis model (lung, Q-PCR and IHC); assay type: in vivo, mice; details: 200 μg IMAB362, day 42
Description: Animals were sacrificed on day 42 post graft. […] Human cells were immunohistochemically stained in tissue sections with anti-human MHC-class I antibodies. * p<0.05 (Kruskal-Wallis test). Error bars: mean±SD.
Metastasis treatments were performed with 10-12 Hsd:Athymic Nude-Foxn1^nu mice per treatment group. […] All mice were sacrificed at the same time point, as soon as the first symptoms of metastasis disease appeared (loss of weight, weakness, shortness of breath), or the first mouse died.
All their organs were macroscopically analyzed for metastasis. […] These organs were dissected into 4 equal pieces, two (lung: upper right and lower left lobe), which were stored for genomic DNA isolation. The other two pieces were formalin fixed and stored for IHC analysis (FIG. 2).
Preparation of genomic DNA and Q-PCR strategy: Genomic DNA was extracted from lung or liver tissue.
The Q-PCR strategy is based on the amplification of human DNA present in the metastases. The relative detection level of human DNA in the mouse lung sample correlates directly with the amount and/or size of the metastases.
The Q-PCR reaction was performed with primer pair #5861 5′-[…]-3′ (SEQ ID NO: 53) and #5862 5′-[…]-3′ (SEQ ID NO: 54) specifically amplifying the alpha-satellite DNA present in human chromosome 17, but not in mouse DNA. […] The curve was used to calculate (linear regression) the amount of human metastasis DNA present in mouse lung tissue. Q-PCR reactions were performed in 50 μl final volume comprised of 20 μl (200 ng) mouse lung DNA, 25 μl Sybr Green (Qiagen), 1.6 μl sense primer (10 μM) and 1.6 μl anti-sense primer and 1.8 μl H2O.
After 35 days the first mouse (isotype control group) died. Consequently, all mice were sacrificed on day 42 and lungs and livers were taken for IHC and Q-PCR analyses.
Q-PCR analysis of human DNA in the lungs of mice was repeated at least twice in triplicate. […] The surface of the positively stained cells in the lung sections was calculated using the ImageJ Program. […]

SW1990 = test: IMAB362-mediated ADCC assay; assay type: cell-based, human; details: at least 2 donors
CFPAC1 = test: IMAB362-mediated ADCC assay; assay type: cell-based, human; details: at least 2 donors
KATO-III = test: Apoptosis by cross-linking of IMAB362 (TUNEL assay); assay type: cell-based, human; details: within 18-42 hours
Description: (§1) The apoptotic assay based on DNA fragmentation was performed as follows. Treated cells (adherent and floating) were fixed in 70% icecold EtOH overnight. After washing, 10^6 fixed cells were incubated with terminal deoxynucleotidyl transferase enzyme (TdT) and FITC-dUTP for 90 min at 37° C. to label DNA breaks. Cells were rinsed, incubated in RNase A/propidium iodide in the dark for 30 min at room temperature to stain total DNA, then analyzed by flowvcytometry. Cell doublets and clumps were eliminated from the analysis by gating.
(§2) The magnitude of apoptosis correlates with the dose of the antibody and level of target expression on the cancer cell. Treatment with gemcitabine leads to cell cycle arrest of tumor cells followed by apoptotic cell death.

NUGC-4 = test: as above; assay type: cell-based, human; details: within 18-42 hours
Description: as §1, §2

[2] = tested on: MiaPaCa-2-LVT, Suit2-LVT and CAPAN1-LVT; test: IMAB362-mediated CDC assay, LVT cell lines; assay type: cell-based, human
Description: CDC was performed as follows.
CHO-K1 cells stably transfected with CLDN18.2 (p740) and luciferase were used as assay positive controls in each assay (FIG. 23A). […] This is most likely due to the fact that neoplastic cells over-express one or more membrane bound complement inhibitory proteins (e.g. CD46, CD55 and CD59) (Geis et al., Curr Cancer Drug Targets, 2010 10:922-931). However, if expression of these inhibitory proteins on tumor cells affect clinical outcome of an antibody therapy is still contradictory (Dzietczenia et al. Med. Oncol. 2010, 27:743-6; Weng and Levy at al., Blood 2001 98:1352-7). In addition to the endogenous cell lines, all the LVT cell lines were tested in CDC assays.

DANG = test: Cell cycle analysis; assay type: cell-based, human; details: 2 days
Description: The area of each bar is divided to indicate the percentage of cells in G0/G1, S and G2 phase.
Cells were plated in six-well plates, and 5-6 hours later chemotherapeutic agents were added for either 24 h 48 h or 3 days. Cells floating in the medium were combined with the adherent cell layer, which was trypsinized. Cells were washed. Either cell cycle analysis was started directly or cell surface staining was done before as described above. Cells are resuspended in 1 ml PBS and added to 3 ml 4% PFA. After 15 min fixation of cells at room temperature cells are pelleted and washed. For RNAse treatment cells were resuspended in 200 μl RNAse (10000 U/ml) plus 0.05% Triton X-100 and incubated for 30 min at 37° C. 1 ml PBS was added and samples were centrifuged and resuspended in 200 μl PBS/PJ 50 μg/ml. At least 30 min later samples were ready to be analyzed by flow cytometry. Cell cycle phase distribution was determined using FlowJo software to analyze DNA content histograms.

IMAB362: chimeric IgG1 antibody directed against CLDN18.2, developed by Ganymed Pharmaceuticals AG
measured tumor markers ([1]; one patient, within 4 weeks after treatment): decreased significantly
tolerability in patients ([1]; single i.v. administration 33-1000 mg/m^2, observed 28 days): very well tolerated
ADCC EC50 (Panc04.03): n.m.
surface of MHC-I stained cells in lung sections (IHC) (Suit2-LVT metastases; versus PBS): significant inhibition (P<0.05)
percentage of human DNA in lungs (Q-PCR) (Suit2-LVT metastases; versus PBS and isotype control): significant decrease (P<0.05)
surface of MHC-I stained cells in lung sections (IHC) (Suit2-LVT metastases; versus isotype control antibody): not significant
ADCC EC50 (SW1990): n.m.
ADCC Max. lysis (SW1990): n.m.
ADCC EC50 (CFPAC1): n.m.
ADCC Max. lysis (CFPAC1): 0-1.5%
induction of apoptosis (KATO-III): induces direct apoptosis
induction of apoptosis (NUGC-4): induces direct apoptosis
CDC EC50 ([2]; BxPC3 LVT): n.m.
CDC Max. lysis ([2]; BxPC3 LVT): n.m
CDC EC50 ([2]; CAPAN1-LVT): 970.1 ng/mL
CDC Max. lysis ([2]; CAPAN1-LVT): 79.1%
CDC EC50 ([2]; DANG-LVT): n.m.
CDC Max. lysis ([2]; DANG-LVT): n.m.
CDC EC50 ([2]; HPAC-LVT): n.m.
CDC Max. lysis ([2]; HPAC-LVT): n.m.
CDC EC50 ([2]; MiaPaCa2-LVT): 340 ng/mL
CDC Max. lysis ([2]; MiaPaCa2-LVT): 78.4%
CDC EC50 ([2]; Patu8902-LVT): 291.0 ng/mL
CDC Max. lysis ([2]; Patu8902-LVT): 76.7%
CDC EC50 ([2]; Suit2-LVT): n.m.
CDC Max. lysis ([2]; Suit2-LVT): n.m.
CDC EC50 ([2]; YAPC-LVT): n.m.
CDC Max. lysis ([2]; YAPC-LVT): n.m.

Nc1ccn([C@@H]2O[C@H](CO)[C@@H](O)C2(F)F)c(=O)n1 [gemcitabine, 4-amino-1-(2-deoxy-2,2-difluoro-β-D-erythro-pentofuranosyl)pyrimidin-2(1H)-one]
cell cycle effect (DANG): cell cycle arrest of cells in S-Phase
